Source: patent publication US20030134901A1, “Lipoxin compounds and their use in treating cell proliferative disorders” (priority 1993, published 2003)

Legend:
human skin fibroblasts = assay: Fibroblast proliferation, MTT assay; format: cell-based; conditions: 100 nM, n=3
Source text: Human type II epithelial A549 cells from human lung carcinoma and normal human skin fibroblast (breast) were obtained from the American Type Culture Collection (Rockville, Md.). The A549 cell line originated from a human alveolar cell carcinoma and was a useful cell line because it was easily assessable and could be maintained in culture without contaminating tissue macrophages. (Lieber, M., et al (1976) A continuous tumor-cell line from a human lung carcinoma with properties of type II alveolar epithelial cells. Int. J Cancer Fibroblasts were utilized within their limited window of viability and their passage numbers were recorded (results are reported for cells from 3-5 passages). Epithelial A549 cells were seeded into T-75 cm^2 tissue culture flasks and maintained in F-12K medium supplemented with 10% heat-inactivated FBS, penicillin (50 U/mL) and streptomycin (50 (g/mL). Human PMN from healthy donors who had not taken ASA or other medications for at least two weeks were obtained by Ficoll-Hypaque gradient centrifugation and dextran sedimentation, (Böyum A. (1968) Isolation of mononuclear cells and granulocytes from human blood. […] Viability of A549 cells and PMN was determined by their ability to exclude trypan blue and were 95±2 and 97±1%, respectively.
A microculture 3,(4,5-dimethylthiazoyl-2-yl) 2,5 (diphenyl-tetrazolium bromide) (MTT) assay, (Marshall, N. J., et al. (1995) A critical assessment of the use of microculture tetrazolium assays to measure cell growth and function. Growth Regul. 5: 69-84.), was used to examine the actions of LXs and other eicosanoids on cell proliferation. A549 cells and fibroblasts from exponential-phase maintenance cultures were counted and dispensed within replicate 96-well culture plates in 100 μl volumes of medium (˜2000 cells/well). […] Dye solution was aspirated, wells were washed once with HBSS and dye taken up by the cells was extracted in 100 μl of isopropyl alcohol:1 N HCl (96:4, v/v) and quantitated at 570 nm using a microplate reader (Molecular Devices, Menlo Park, Calif.). […]

[1] = target: T1, LXA4 specific binding sites of differentiated HL-60 cells (Homo sapiens, UniProt P25090); assay: 3H-LXA4 specific binding to differentiated HL-60 cells; conditions: competition, competitor 300 nM where printed
T1 construct: endogenous in cells; host or cells: HL-60 cells differentiated with DMSO, retinoic acid or PMA; intact cells
T1 sequence (P25090 1-351): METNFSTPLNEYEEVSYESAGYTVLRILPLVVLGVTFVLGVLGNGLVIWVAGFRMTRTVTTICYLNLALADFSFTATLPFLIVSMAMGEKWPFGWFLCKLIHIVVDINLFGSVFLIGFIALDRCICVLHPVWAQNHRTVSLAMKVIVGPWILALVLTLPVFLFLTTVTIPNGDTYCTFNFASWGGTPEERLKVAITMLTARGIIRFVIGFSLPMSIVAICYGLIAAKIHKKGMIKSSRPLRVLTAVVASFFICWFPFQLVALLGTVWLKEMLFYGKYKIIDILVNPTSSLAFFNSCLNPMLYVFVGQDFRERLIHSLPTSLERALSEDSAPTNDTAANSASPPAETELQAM
Procedure: Preparation of [11,12-^3H]LXA4. Tritiation of 11,12-acetylenic LXA4 methyl ester was carried out under a custom tritiation service (NET-259:92-2326) by New England Nuclear (Boston, Mass.). Briefly, 11,12-acetylene methyl ester was characterized by UV absorbance and reverse-phase HPLC as in (Nicolaou, K. C. et al. (1985) J. Am. Chem. Soc. 107:7515) and exposed to tritium atmosphere in methylene chloride at room temperature. This incubation was stirred in the presence of Lindlar catalyst (1.0 mg from Fluka Chemicals) for˜1 h. The resulting mixture was stored in methanol and isolated using RP-HPLC. Tritiated products were chromatographed as methyl esters utilizing a gradient HPLC system equipped with a photodiode array rapid spectral detector (Serhan, C. N., Methods in Enzymology: Arachidonate Related Lipid Mediators, in Murphy R. C., Fitzpatrick, F. (eds.), vol. 187. Orlando, Fla., Academic, (1990), p. 167). This mixture contained both [11,12-^3H]LXA4 and [11,12-^3H]-11-trans-LXA4 methyl esters (˜1:3 ratio) as determined by coelution with synthetic standards. After RP-HPLC, fractions containing [11,12-^3H]LXA4 were collected, and extracted into ethyl acetate. The free acid was prepared by LiOH saponification (Fiore, S. et al. (1992) J. Biol. Chem. 267:16168). Material from these fractions, when injected into UV-electrochemical detection HPLC, gave greater than 90% of radioactivity associated with a tetraene-containing product that coeluted with synthetic LXA4. Materials that eluted with the retention time of authentic LXA4 in two HPLC systems were taken for binding experiments. The specific activity calculated for [11,12-^3H]LXA4 was 40.5 Ci/mmole.
Cell cultures and differentiation. HL-60 cells were seeded in RPMI medium supplemented with 100 U/ml penicillin, 100 μg/ml streptomycin, and 10% fetal calf serum (Hyclone, Logan, Utah), incubated at 37° C. with 5% CO2 atmosphere in 250 ml flasks. Individual flasks containing ˜[…] next received dimethyl sulfoxide (DMSO) (1.12% v/v, 120 h) or retinoic acid (RA) (1 μM, 120 h) or phorbol myristate acetate (PMA) (20 nM, 48 h). Before performing binding assays, cells were washed twice in phosphate buffered saline (PBS), Ca^2+- and Mg^2+-free, enumerated and suspended at 20×10^6 cells/ml in Tris buffer (10 mM), pH 7.4 (Fiore, S. et al.(1992) J. Biol. Chem. 267:16168). Nitro blue tetrazolium reduction was performed to monitor induction of polymorphonuclear phenotype as in (Imaizumi, M. and Breitman, T. R. (1986) Blood 67:1273), and cell adherence was determined for induction of macrophage-like phenotype (Collins, S. J. (1987) Blood 70:1273). Human umbilical vein endothelial cells (HUVEC) maintained in culture third passage were obtained from Dr. M. Gimbrone (Brigham and Women's Hospital Department of Pathology).
Ligand binding. ^3H-LXA4 and ^3H-LTB4 binding was performed essentially as in Fiore, S. et al.(1992) J. Biol. Chem. 267:16168. After suspending cells in Tris buffer 10 mM (pH 7.4, Ca^2+ 2.5 mM, Mg^2+ 1.2 mM), aliquots (0.5 ml) were incubated (20 min at 4° C.) with ^3H- ligands alone (0.3 nM) or in the presence of increasing concentrations of homoligands or other compounds (3-300 nM). The incubations were rapidly centrifuged (60 sec, 12,000 g) on silicon oil (d=1.028), and cell-associated radioactivity was determined by liquid scintillation counting (Wallac 1409, Pharmacia, Piscataway, N.J.). Binding experiments with HUVEC cells were performed in 12 well plates with 3.5×10^5 cells/well. After 10 min, wells were washed twice with PBS and cell-associated label was recovered by adding glacial acetic acid (0.5 ml). Results obtained from these assays were submitted for further analysis using the Ligand program (Elsevier-Biosoft, Cambridge, UK).

A549 cells = assay: A549 cell proliferation, MTT assay; format: cell-based, human
Procedure: A microculture 3,(4,5-dimethylthiazoyl-2-yl) 2,5 (diphenyl-tetrazolium bromide) (MTT) assay, (Marshall, N. J., et al. (1995) A critical assessment of the use of microculture tetrazolium assays to measure cell growth and function. Growth Regul. 5: 69-84.), was used to examine the actions of LXs and other eicosanoids on cell proliferation. A549 cells and fibroblasts from exponential-phase maintenance cultures were counted and dispensed within replicate 96-well culture plates in 100 μl volumes of medium (˜2000 cells/well). Following 24 hours at 37° C., the culture medium was removed, and fresh medium (100 μl) containing either the compounds (5-1000 nM) or vehicle (medium plus 0.15% ethanol) was added to 4 replicates for each condition studied and the culture plates were then incubated for up to 96 hours at 37° C. in a 5% CO2 atmosphere. At the end of this period, 25 μl of freshly prepared MTT in HBSS (5 mg/ml) was added to the wells and the plates were incubated for 4 hours at 37° C. Dye solution was aspirated, wells were washed once with HBSS and dye taken up by the cells was extracted in 100 μl of isopropyl alcohol:1 N HCl (96:4, v/v) and quantitated at 570 nm using a microplate reader (Molecular Devices, Menlo Park, Calif.). In some experiments, cells were grown in 12-well culture plates, treated as above and enumerated using a Neubauer hemocytometer. Viability was assessed routinely using trypan blue exclusion assay. For the A549 cells and fibroblasts, a linear relation was established for the MTT values and cell number within the range of the experiments shown (r=0.995, P<0.005). A549 cells grown for 72 hours in the presence of the compounds (5-1000 nM) or vehicle (0.15% EtOH) were lysed with 0.25 N NaOH and the cellular protein content was determined by applying the Bio-Rad (Richmond, Calif.) microassay method using bovine serum albumin as standard. The mean cellular protein content in resting A549 cells was 46.6±1.5 pg/cell.

CCCCC[C@H](O)[C@H](O)/C=C/C=C/C=C\C=C\[C@@H](O)CCCC(=O)O [LXB4, (5S, 14R, 15S)-trihydroxy-6E, 8Z, 10E, 12E-eicosatetraenoic acid]
inhibition of proliferation of fibroblasts (human skin fibroblasts): 38.0% | displacement of 3H-LXA4 specific binding [1]: Neither LXB4, LTB4, nor trihydroxyheptanoic acid (methyl ester) (300 nM) were able to displace | inhibition of A549 cell proliferation over time (A549 cells; 1 μM, after 72 and 96 hours of treatment): inhibited A549 cell proliferation | % inhibition (A549 cells; 10^−7 M, 72 hours at 37° C., mean ± SEM, 3 to 7 experiments): 30.0 ± 8.5% | times more active than either LXA4 or dexamethasone (A549 cells; concentrations of 0.5 and 1 μM, 72 hours): 3 times | inhibition proliferation (A549 cells; equimolar levels (100 nM), Table 1): ~34%
